How the values were obtained:
Format in all cases: cell-based
SUP-M2 cells = test: CellTiter-Glo 2.0 cell viability assay, SUP-M2; settings: SUP-M2, 96 h, 4 days
In short: (§1)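 IC50 derived by four-parameter nonlinear regression on triplicate luminescence data (CellTiter-Glo 2.0), normalised to untreated controls. Cells plated at 1000/well received serial compound dilutions for 4 days at 37 °C with 5% CO2.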

STAT3 = biological target: T1, STAT3 (Homo sapiens, UniProt P40763); test: HiBiT assay, STAT3 degradation in STAT3-HiBiT KI HeLa cells; settings: 24 h
T1 construct: This cell line is a clone created by using CRISPR-Cas9 to fuse HiBiT to the 3′ end of STAT3 in HeLa cells; host or cells: STAT3-HiBiT KI HeLa cell line (CRISPR-Cas9 knock-in clone)
T1 sequence (P40763 whole entry): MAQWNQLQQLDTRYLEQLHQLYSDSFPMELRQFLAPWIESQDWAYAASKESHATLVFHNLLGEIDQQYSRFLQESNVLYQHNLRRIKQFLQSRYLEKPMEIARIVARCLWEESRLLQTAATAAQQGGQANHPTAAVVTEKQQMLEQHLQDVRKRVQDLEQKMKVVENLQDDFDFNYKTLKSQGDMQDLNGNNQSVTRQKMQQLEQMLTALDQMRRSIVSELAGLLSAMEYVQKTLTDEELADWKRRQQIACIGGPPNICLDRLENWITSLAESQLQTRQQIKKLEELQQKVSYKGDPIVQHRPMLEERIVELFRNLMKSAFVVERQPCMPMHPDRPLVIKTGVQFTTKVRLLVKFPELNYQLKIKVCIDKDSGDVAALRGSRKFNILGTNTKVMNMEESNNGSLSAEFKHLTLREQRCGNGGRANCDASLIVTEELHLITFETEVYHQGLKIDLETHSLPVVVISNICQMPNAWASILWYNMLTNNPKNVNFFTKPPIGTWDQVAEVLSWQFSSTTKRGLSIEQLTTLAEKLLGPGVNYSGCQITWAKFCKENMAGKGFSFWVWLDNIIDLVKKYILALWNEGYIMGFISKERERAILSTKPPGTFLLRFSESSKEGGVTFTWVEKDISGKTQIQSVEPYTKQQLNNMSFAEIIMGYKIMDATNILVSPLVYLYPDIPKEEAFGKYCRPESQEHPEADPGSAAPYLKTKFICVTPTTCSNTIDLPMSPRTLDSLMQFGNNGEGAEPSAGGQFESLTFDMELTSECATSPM
In short: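 Luminescence of endogenous HiBiT-tagged STAT3 (C-terminal knock-in, HeLa) was measured with lytic Nano-Glo detection after 24 h exposure to serially diluted compounds at 37 °C. Cells plated at 20000/well; untreated cells served as control, and triplicate means were fit by four-parameter regression to give IC50.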

SU-DHL-1 cells = test: CellTiter-Glo 2.0 cell viability assay, SU-DHL-1; settings: Homo sapiens, 96 h, 4 days
In short: as §1

SMILES: CC(=O)N1CC[C@H]2CC[C@@H](C(=O)N[C@@H](CCC(N)=O)COc3cccc(CCCc4cn([C@H](C(=O)N5C[C@H](O)C[C@H]5C(=O)N[C@@H](C)c5ccc(-c6scnc6C)cc5)C5CCN(C6CCOCC6)CC5)nn4)c3Cl)N2C(=O)[C@@H](NC(=O)c2cc3cc(C(=O)P(=O)(O)O)ccc3[nH]2)C1 [Compound 25, (2-(((5S,8S,10aR)-3-acetyl-8-(((S)-5-amino-1-(2-chloro-3-(3-(1-((S)-2-((2S,4R)-4-hydroxy-2-(((S)-1-(4-(4-methylthiazol-5-yl)phenyl)ethyl)carbamoyl)pyrrolidin-1-yl)-2-oxo-1-(1-(tetrahydro-2H-pyran-4-yl)piperidin-4-yl)ethyl)-1H-1,2,3-triazol-4-yl)propyl)phenoxy)-5-oxopentan-2-yl)carbamoyl)-6-oxodecahydropyrrolo [1,2-a][1,5]diazocin-5-yl)carbamoyl)-1H-indole-5-carbonyl)phosphonic acid]
- IC50 (SUP-M2 cells): 0.01 to 0.1 µM
- Dmax at 1 µM (STAT3; @1 μM): 60 to 80%
- DC50 (STAT3; read-out: STAT3 Degradation (HeLa 24 h HiBit) DC50): 0.1 to 1 µM
- IC50 (SU-DHL-1 cells): 0.01 to 0.1 µM

Source: patent publication US20260226086A1, “COMPOUNDS AND COMPOSITIONS AS STAT3 DEGRADERS AND USES THEREOF” (REGENTS OF THE UNIVERSITY OF MICHIGAN, priority 2023, published 2026)
